Laboratory results from patent US20250082624A1, “METHODS OF TREATING COGNITIVE IMPAIRMENT” (NeuroTherapia, Inc., priority 2023, published 2025).
Where “and” joins values, the source holds several entries; their conditions need not be identical. Equal entries are not always repeated. Entries after “also recorded” stand apart in the source; their conditions may differ.

What was measured:
Format in all cases: in vivo, human
[1] = system: AD cohort; experiment: Cognitive testing MOCA / MMSE in AD cohort; design: MOCA / MOCA Mean (StdDev): scale not given here; conditions: 90 mg QD 7 days
Source text: (§1) Methods: All study procedures were approved by the IRB, and informed consent was obtained. Three cohorts of volunteers 45-80 years of age with well-controlled comorbidities (NOAD) and one cohort of AD patients diagnosed with cognitive impairment consistent with prodromal AD per International Working Group criteria or mild AD per National Institute on Aging—Alzheimer's Association criteria (n=6 active, 2 placebo per cohort) were enrolled. Participants were admitted to the study site for the duration of the dosing and returned 7-12 days after the last dose for a safety visit. Participants received NTRX-07 (10, 30, or 90 mg) or a placebo in a double-blinded randomization orally once daily for seven days. Subjects were assessed for changes in vital signs, including maneuvers to induce lightheadedness, electrocardiograms, 24-hour electroencephalograms (EEG), and safety laboratory studies. The second cohort returned and received a single repeat dose after a standard high-fat meal. The AD cohort also underwent cognitive testing and had blood samples for biomarkers drawn. Subjects had PK sampling done after the first and final dose of the study drug. An independent safety review committee conducted a blinded safety review of adverse events and plasma levels between each cohort.
(§2) Assessments: Subjects were assessed for changes in vital signs, orthostatic blood pressure, Romberg test, nystagmus, timed get up and go, electrocardiograms, electroencephalograms (EEG), and laboratory studies. Subjective questionnaires of drug effects (ARCI-M) were administered. Cohort B returned and received a single repeat dose after a standard high-fat meal. The AD cohort also underwent cognitive testing (MMSE, ADAS-COG, MOCA) and had blood samples for biomarkers drawn.
(§3) Exploratory endpoints include cognitive testing and potential plasma biomarkers of inflammation. The small group size (6 on treatment, 2 placebo) precludes statistical analysis, but the goals were to gain insights for future study design. Exploratory endpoints include: • MMSE, MOCA & ADAS-COG • IL-12p70, IL-10, IL-4, IL-5, INFg, IL-6, IL-8, IL-22, TNFa, IL-10, hCRP, Chitinase-3, TREM-2, IL-2, Neurogranin, Total Tau, AB42, AB40, NF-LIGHT, pTau-181

[2] = system: volunteers and AD patients; experiment: Phase 1b MAD safety and tolerability (adverse events, ECG, safety labs)
Source text: as §1, §2
(§4) An informational letter was filed with the FDA to inform them of this study. The study was designed as follows: • 3 healthy cohorts (cohorts A-C) followed by AD cohort (cohort D) treated at MTD • 6 treated, 2 placebos in each cohort • Doses: 10, 30, 90 mg/treatment—latter doses can be adjusted based on PK assessment • In unit, 7 days of treatment • Monitor vertigo with various tests: (1) timed get-up and go, (2) Nystagmus test, (3) Romberg test, and (4) changes in orthostatic blood pressure (Day 1, 3 and 8) • Use 24 hr EEG monitoring for CNS safety assessment • Assess plasma biomarkers of inflammation and AD pre- and post-treatment in AD cohort • Assess changes on cognition post-treatment using MMSE and ADAS-cog • Fed/fasted study to determine food effects on PK as a subset of the Phase 1b

[3] = system: plasma biomarkers of inflammation; experiment: Plasma biomarkers of inflammation and AD in AD cohort; conditions: for AB40 Median / AB42 Median / Chitinase-3 Median / IL-1β Median / IL-2 Median / IL-4 Median / IL-5 Median / IL-6 Median / IL-8 Median / IL-10 Median / IL-12p70 Median / IL-22 Median / INFg Median / NF-LIGHT Median / Neurogranin Median / TNFa Median / TREM-2 Median / Total Tau Median / hCRP Median / pTau-181 Median: plasma
Source text: as §1, §2, §4, §3

[4] = Phase 1b, individual subjects on NTRX-07, Cohorts C and D (90 mg QD)
[5] = after 7 days of 90 mg QD, Day 8

CC1(Cc2ccccc2)COc2cc(C(=O)N3CCCCC3)ccc21 (centres unmarked) [NTRX-07, 3-benzyl-3-methyl-2,3-dihydrobenzofuran-6-carboxylic acid-piperidine amide]
Changes in cognitive scores (MMSE, MOCA) [1]: No significant changes in cognitive scores; also recorded: No appreciable changes
MOCA Mean (StdDev) ([1]; Day 8): 19.7 ± 1.8
MOCA ([1]; Day 8, individual subjects): 22 and 21 and 19 and 20 and 17
MOCA Mean (StdDev) ([1]; Day −2 (baseline)): 20.5 ± 2.6
MOCA ([1]; Day −2 (baseline), individual subjects): 22 and 21 and 24 and 18 and 17
MOCA Mean (StdDev) ([1]; EOS Day 14-19): 20.7 ± 3.5
MOCA ([1]; EOS Visit (Day 14-19), individual subjects): 25 and 15 and 20 and 23 and 22 and 19
Changes in ECG or safety labs ([2]; Phase 1b): No clinically meaningful changes
Dose-limiting toxicities / serious adverse events ([2]; Phase 1b, 10, 30, 90 mg oral QD for 7 days): no dose-limiting or serious adverse events; also recorded: safely administered; also recorded: No dose limiting toxicities at any of the tested doses
Adverse events observed during trial: Description of Event [2, 4]: Subfebrility; also recorded: Heartburn; also recorded: Dry mouth; also recorded: Xerostomia; also recorded: Hypertension; also recorded: Nausea; also recorded: Hypertension,; also recorded: tachycardia; also recorded: Dizziness; also recorded: Presyncope; also recorded: Weakness
Adverse events observed during trial: Related to Study Drug? [2, 4]: Possible (7×) and Probable and None (2×)
Adverse events observed during trial: Severity [2, 4]: Mild (8×) and Moderate (2×)
Changes in plasma biomarkers ([3]; 90 mg QD 7 days): No significant changes in biomarkers or plasma biomarkers; also recorded: no consistent changes
AB40 Median ([3]; 90 mg QD, Day 1 (baseline)): 232.84 pg/mL
AB42 Median ([3]; 90 mg QD, Day 1 (baseline)): 8.29 pg/mL
Chitinase-3 Median ([3]; 90 mg QD, Day 1 (baseline)): 43668.33 pg/mL
IL-1β Median ([3]; 90 mg QD, Day 1 (baseline)): 0.13 pg/mL
IL-2 Median ([3]; 90 mg QD, Day 1 (baseline)): 0.16 pg/mL
IL-4 Median ([3]; 90 mg QD, Day 1 (baseline)): 1.38 pg/mL
IL-5 Median ([3]; 90 mg QD, Day 1 (baseline)): 0.17 pg/mL
IL-6 Median ([3]; 90 mg QD, Day 1 (baseline)): 2.19 pg/mL
IL-8 Median ([3]; 90 mg QD, Day 1 (baseline)): 7.65 pg/mL
IL-10 Median ([3]; 90 mg QD, Day 1 (baseline)): 0.35 pg/mL
IL-12p70 Median ([3]; 90 mg QD, Day 1 (baseline)): 0.34 pg/mL
IL-22 Median ([3]; 90 mg QD, Day 1 (baseline)): 0.9 pg/mL
INFg Median ([3]; 90 mg QD, Day 1 (baseline)): 0.08 pg/mL
NF-LIGHT Median ([3]; 90 mg QD, Day 1 (baseline)): 18.24 pg/mL
Neurogranin Median ([3]; 90 mg QD, Day 1 (baseline)): 671.19 pg/mL
TNFa Median ([3]; 90 mg QD, Day 1 (baseline)): 0.69 pg/mL
TREM-2 Median ([3]; 90 mg QD, Day 1 (baseline)): 38468.67 pg/mL
Total Tau Median ([3]; 90 mg QD, Day 1 (baseline)): 2.07 pg/mL
hCRP Median ([3]; 90 mg QD, Day 1 (baseline)): 4135.17 ng/mL
pTau-181 Median ([3]; 90 mg QD, Day 1 (baseline)): 21.53 pg/ml
AB40 Median [3, 5]: 226.52 pg/mL
AB42 Median [3, 5]: 8.57 pg/mL
Chitinase-3 Median [3, 5]: 40345.17 pg/mL
IL-1β Median [3, 5]: 0.11 pg/mL
IL-2 Median [3, 5]: 0 pg/mL
IL-4 Median [3, 5]: 1.14 pg/mL
IL-5 Median [3, 5]: 0.19 pg/mL
IL-6 Median [3, 5]: 2.44 pg/mL
IL-8 Median [3, 5]: 10.41 pg/mL
IL-10 Median [3, 5]: 0.38 pg/mL
IL-12p70 Median [3, 5]: 0.33 pg/mL
IL-22 Median [3, 5]: 0.87 pg/mL
INFg Median [3, 5]: 0.08 pg/mL
NF-LIGHT Median [3, 5]: 18.49 pg/mL
Neurogranin Median [3, 5]: 881.02 pg/mL
TNFa Median [3, 5]: 0.83 pg/mL
TREM-2 Median [3, 5]: 39576.17 pg/mL
Total Tau Median [3, 5]: 2.03 pg/mL
hCRP Median [3, 5]: 4211.88 ng/mL
pTau-181 Median [3, 5]: 20.16 pg/ml
